ChEMBL document CHEMBL5528068, “Structure-Activity Relationship Studies and Optimization of 4-Hydroxypyridones as GPR84 Agonists” (J Med Chem, 2024)
Converted amounts (≈) assume the structure as drawn.

Experiments:
[1] = target: T1, G-protein coupled receptor 84 (Homo sapiens, UniProt Q9NQS5); assay: Agonist activity at GPR84 (unknown origin) expressed in HTLA cells assessed as beta-arrestin recruitment incubated for 1 day by PRESTO-Tango assay
[2] = Dissociation constant, pKa of compound by UV spectrophotometric analysis
[3] = Solubility in PBS at pH 7.4 incubated for 24 hrs by HPLC analysis
[4] = target: T1, G-protein coupled receptor 84; assay: Agonist activity at GPR84 (unknown origin) expressed in Flp-In-T-REx-293 cells transfected with GalphaI incubated for 1 hr by Topcount scintillation counting method
[5] = target: T1, G-protein coupled receptor 84; assay: Agonist activity at GPR84 (unknown origin) expressed in doxycycline induced Flp-In-T-REx-293 cells transfected with GalphaI preincubated for 15 mins in presence of IBMX followed by forskolin stimulation for 45 mins by time-resolved fluorescence assay
[6] = target: T1, G-protein coupled receptor 84; assay: Agonist activity at GPR84 (unknown origin) expressed in HEK293T cells expressing beta-arrestin 2-nanoluciferase incubated for 5 mins by beta-arrestin recruitment based BRET assay
[7] = target: T1, G-protein coupled receptor 84; assay: Displacement of [3H]140 from GPR84 (unknown origin) expressed in Flp-In-T-REx-293 cells transfected with GalphaI incubated for 1 hr by liquid scintillation spectrometry analysis

T1 sequence (Q9NQS5 whole entry): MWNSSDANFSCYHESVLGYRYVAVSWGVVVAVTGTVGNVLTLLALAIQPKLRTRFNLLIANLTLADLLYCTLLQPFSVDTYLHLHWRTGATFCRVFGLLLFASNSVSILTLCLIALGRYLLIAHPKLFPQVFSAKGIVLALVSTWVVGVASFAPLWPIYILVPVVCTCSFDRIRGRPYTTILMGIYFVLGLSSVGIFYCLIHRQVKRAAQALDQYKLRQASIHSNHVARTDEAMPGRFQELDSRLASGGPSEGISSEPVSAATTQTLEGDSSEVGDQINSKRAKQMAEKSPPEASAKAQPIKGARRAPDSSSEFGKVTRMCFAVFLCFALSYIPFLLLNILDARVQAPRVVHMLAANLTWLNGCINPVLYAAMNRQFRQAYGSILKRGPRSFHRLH

Row | SMILES | EC50 [1] | EC50 [5] | also measured
1 | CCCCCCCCCCCc1cc(O)cc(=O)[nH]1 | 0.427 nM | – | –
2 | CCCCCCCc1cc(O)cc(O)n1 | 0.0468 nM | – | pKa [2]: 6.68
3 | CCCCCCCCc1cc(O)cc(O)n1 | 0.0275 nM | – | –
4 | CCCCCCCCCc1cc(O)cc(O)n1 | – | – | solubility at 24 h [3]: 10 µM (≈ 2.37 µg/mL)
5 | CCCCCCCCNc1cc(O)cc(=O)[nH]1 | 3.31 nM | – | –
6 | O=c1cc(O)cc(CCCOc2ccccc2)[nH]1 | 4.17 nM | – | –
7 | O=C1c2ccccc2C(=O)N1CCCCc1cc(O)cc(=O)[nH]1 | 3240 nM | – | –
8 | CCCCc1ccc(-c2cc(O)cc(O)n2)cc1 | 25.7 nM | 18.2 nM | pKa [2]: 8.04; EC50 [4]: 63.1 nM; EC50 [6]: 1620 nM
9 | CCCC(=O)NCCCCc1cc(O)cc(=O)[nH]1 | 23400 nM | – | –
10 | CCCCCc1ccc(-c2cc(O)cc(=O)[nH]2)cc1 | 12.6 nM | 19.5 nM | EC50 [4]: 26.3 nM; EC50 [6]: 2630 nM
11 | CCCc1ccc(CCc2cc(O)cc(=O)[nH]2)cc1 | 0.302 nM | 0.331 nM | EC50 [4]: 1.2 nM; EC50 [6]: 214 nM; Ki [7]: 13.5 nM
12 | CCc1ccc(CCc2cc(O)cc(=O)[nH]2)cc1 | 4.47 nM | – | –
13 | O=c1cc(O)cc(CCc2cccc(-c3ccccc3)c2)[nH]1 | 4270 nM | – | –
14 | O=c1cc(O)cc(CCc2ccccc2)[nH]1 | – | – | pKa [2]: 6.6
15 | CCCCCCCCCCc1cc(O)cc(=O)[nH]1 | 0.24 nM | – | –
16 | Cc1nnc(-c2ccc(-c3cc(O)cc(=O)[nH]3)cc2)o1 | 11700 nM | – | –
17 | CCCc1ccc(COc2cc(O)cc(=O)[nH]2)cc1 | 3.24 nM | – | –
18 | O=c1cc(O)cc(-c2ccc(Oc3ccccc3)nc2)[nH]1 | 1.05 nM | 15.8 nM | EC50 [6]: 263 nM; Ki [7]: 13.8 nM
19 | Cc1cccc(CCc2cc(O)cc(=O)[nH]2)c1 | 389 nM | – | –
20 | CCOc1ccc(CCc2cc(O)cc(=O)[nH]2)cc1 | 44.7 nM | 15.8 nM | EC50 [4]: 33.1 nM; EC50 [6]: 7240 nM
21 | CC(C)Cc1ccc(CCc2cc(O)cc(=O)[nH]2)cc1 | 12.6 nM | 6.76 nM | EC50 [4]: 12 nM; EC50 [6]: 912 nM
22 | O=c1cc(O)cc(CCc2ccc3c(c2)Cc2ccccc2-3)[nH]1 | 5010 nM | 1660 nM | EC50 [4]: 525 nM
23 | CCCCCCCC#Cc1cc(O)cc(=O)[nH]1 | 5.75 nM | 14.5 nM | EC50 [4]: 24 nM; EC50 [6]: 550 nM
24 | O=c1cc(O)cc(CCc2ccc(OC(F)(F)F)cc2)[nH]1 | 11 nM | – | –
25 | Cc1ccc(CCc2cc(O)cc(=O)[nH]2)cc1 | 13.8 nM | – | –
26 | O=c1cc(O)cc(-c2ccc(Oc3cncnc3)nc2)[nH]1 | 102 nM | – | –
27 | CCCCCCCOc1cc(O)cc(=O)[nH]1 | 1.32 nM | – | –
28 | O=c1cc(O)cc(-c2ccc(Oc3ccccc3)cc2)[nH]1 | 0.912 nM | 1.26 nM | EC50 [4]: 4.27 nM; EC50 [6]: 209 nM; Ki [7]: 14.8 nM
29 | CC(C)(C)c1ccc(CCc2cc(O)cc(=O)[nH]2)cc1 | 2.95 nM | – | –
